Several values for one entry are separate records, joined by “and”; a condition that tells them apart may be missing. Identical values can stand only once. Like-named read-outs stand apart in the source and are kept apart here.
What was measured:
[1] = tested on: CHO cell line that expresses an antibody; assay: Batch experiment with the substances according to the invention (Example 1); assay type: cell-based, Chinese hamster; settings: batch mode, substance 0.5-1 g/l, basal medium glucose 4.7 g/l, glutamine […]
[2] = tested on: CHO cell line that expresses an antibody; assay: Fed-batch experiment with the substances according to the invention (Example 2, Table 2); assay type: cell-based, Chinese hamster; parameters: Viabil.: concentration or dose not given beside the values
Source text: Feed took place at regular intervals.

[3] = tested on: CHO cell line that expresses an antibody; settings: fed-batch; substance 1 g/l; supernatant, ELISA; absolute value of the control set at 100%
Experimental: A CHO cell line that expresses an antibody was used for the experiments. The product concentration (antibody concentration) in the cell supernatant was determined by ELISA.
From selected samples, the product concentration (antibody concentration) in the supernatant was determined by ELISA (Table 3)

[4] = tested on: CHO cell line that expresses an antibody; settings: fed-batch, glutamine-free basal and feed media, substance 0.5-1 g/l
Source text: (§1) A CHO cell line that expresses an antibody was used for the experiments.
This is a serum-free, protein-free nutrient medium. It is a ready-made, sterile-filtered nutrient medium.
After 1-4 days the cells were supplemented with a feed medium, i.e. the process was switched to fed-batch mode. Feed took place at regular intervals. In fed-batch experiments, a protein-free and serum-free feed medium from the company HyQ (R05.2 supplement, Cat. No.: SH30584.04, Lot No.: APF21457G) was used.
All substances (chemicals) used according to the invention were obtained from the company Sigma and stock solutions were prepared from them. From the stock solutions, the substances were put at the desired final concentration in culture tubes. The various culture tubes prepared in this way were finally inoculated with the antibody-producing CHO-clone at a target inoculation cell concentration (1-3×10^5/ml). For this, the corresponding amount of inoculum cells was calculated and the required amount of inoculum cell suspension was centrifuged. […] In this way the desired inoculation cell concentration was adjusted in the cell suspension being investigated. The cell suspension thus prepared was proportioned in the culture tubes, which were provided with the substances according to the invention beforehand. The culture tubes were incubated at 37° C., and 8% CO2 atmosphere, with shaking. The culture tubes were cultivated for 8-11 days in the batch mode or in the fed-batch mode. Samples for offline measurement of the variables were taken from the culture vessels at regular intervals, for example daily or on every third day. The metabolic variables and cell concentrations of the samples were measured. Cell concentration and cell vitality were measured with a CeDex instrument. The metabolic variables (glucose, lactate, glutamine and ammonium) were determined with an analyzer (BioProfile 100).
(§2) The following final concentrations of the substances according to the invention were established in a nutrient medium after inoculation:
The substances according to the invention were tested under fed-batch conditions. […] The feed medium used was from the company HyQ (R05.2 supplement, Cat. No.: SH30584.04, Lot No.: APF21457G). The feed medium was glutamine-free (Table 4).

[5] = tested on: CHO cell line that expresses an antibody; settings: fed-batch, basal medium 4 mM glutamine, feed with 3 g/l Ala-Gln and 3 g/l Gly-Gln, substance 0.5-1 g/l
Experimental: as §1
The experiments were carried out either in batch mode or in fed-batch mode. When the process was carried out in fed-batch mode, the process was first started in batch mode in the above-mentioned basal medium and cells were cultivated in this manner for 1-4 days. After 1-4 days the cells were supplemented with a feed medium, i.e. the process was switched to fed-batch mode. Feed took place at regular intervals. In fed-batch experiments, a protein-free and serum-free feed medium from the company HyQ (R05.2 supplement, Cat. No.: SH30584.04, Lot No.: APF21457G) was used.
From the stock solutions, the substances were put at the desired final concentration in culture tubes. The various culture tubes prepared in this way were finally inoculated with the antibody-producing CHO-clone at a target inoculation cell concentration (1-3×10^5/ml). For this, the corresponding amount of inoculum cells was calculated and the required amount of inoculum cell suspension was centrifuged. […] In this way the desired inoculation cell concentration was adjusted in the cell suspension being investigated. The cell suspension thus prepared was proportioned in the culture tubes, which were provided with the substances according to the invention beforehand. The culture tubes were incubated at 37° C., and 8% CO2 atmosphere, with shaking. The culture tubes were cultivated for 8-11 days in the batch mode or in the fed-batch mode. Samples for offline measurement of the variables were taken from the culture vessels at regular intervals, for example daily or on every third day. The metabolic variables and cell concentrations of the samples were measured. Cell concentration and cell vitality were measured with a CeDex instrument. The metabolic variables (glucose, lactate, glutamine and ammonium) were determined with an analyzer (BioProfile 100).
as §2
The substances according to the invention were tested under fed-batch conditions. […] The feed medium used was from the company HyQ (R05.2 supplement, Cat. No.: SH30584.04, Lot No.: APF21457G). 3 g/l alanyl-glutamine (Ala-Gin) and 3 g/l glycyl-glutamine (Gly-Gln) were added to the feed medium.

SMILES: O=C([O-])CCC(=O)[O-].[Na+].[Na+] [Sodium succinate]
- Gln ([1]; day 0): 1.53 mM
- Glucose ([1]; day 0): 4.69 g/L
- Lactate ([1]; day 0): 0 g/L
- NH4 ([1]; day 0): 1.22 mM
- Specific Glutamin consumption (Gln/VCD) ([1]; day 0): 1.49
- Specific ammonia production (NH4/VCD) ([1]; day 0): 1.18
- Specific glucose consumption (Gluc/VCD) ([1]; day 0): 4.55
- Specific lactate production (Lac/VCD) ([1]; day 0): 0.00
- Total Cell Density TCD ([1]; day 0): 1.07 E5/ml
- Viabil. ([1]; day 0): 96%
- Viable Cell Density (VCD) ([1]; day 0): 1.03 E5/ml
- Gln ([1]; day 3): 0.76 mM
- Glucose ([1]; day 3): 3.82 g/L
- Lactate ([1]; day 3): 0.86 g/L
- NH4 ([1]; day 3): 1.84 mM
- Specific Glutamin consumption (Gln/VCD) ([1]; day 3): 0.09
- Specific ammonia production (NH4/VCD) ([1]; day 3): 0.22
- Specific glucose consumption (Gluc/VCD) ([1]; day 3): 0.47
- Specific lactate production (Lac/VCD) ([1]; day 3): 0.10
- Total Cell Density TCD ([1]; day 3): 8.3 E5/ml
- Viabil. ([1]; day 3): 99%
- Viable Cell Density (VCD) ([1]; day 3): 8.2 E5/ml
- Gln ([1]; day 6): 0.31 mM
- Glucose ([1]; day 6): 2.4 g/L
- Lactate ([1]; day 6): 1.19 g/L
- NH4 ([1]; day 6): 2.25 mM
- Specific Glutamin consumption (Gln/VCD) ([1]; day 6): 0.01
- Specific ammonia production (NH4/VCD) ([1]; day 6): 0.05
- Specific glucose consumption (Gluc/VCD) ([1]; day 6): 0.05
- Specific lactate production (Lac/VCD) ([1]; day 6): 0.02
- Total Cell Density TCD ([1]; day 6): 49.1 E5/ml
- Viabil. ([1]; day 6): 98%
- Viable Cell Density (VCD) ([1]; day 6): 48.1 E5/ml
- Gln ([1]; day 8): 0.36 mM
- Glucose ([1]; day 8): 1.44 g/L
- Lactate ([1]; day 8): 1.14 g/L
- NH4 ([1]; day 8): 2.33 mM
- Specific Glutamin consumption (Gln/VCD) ([1]; day 8): 0.01
- Specific ammonia production (NH4/VCD) ([1]; day 8): 0.09
- Specific glucose consumption (Gluc/VCD) ([1]; day 8): 0.06
- Specific lactate production (Lac/VCD) ([1]; day 8): 0.04
- Total Cell Density TCD ([1]; day 8): 29.8 E5/ml
- Viabil. ([1]; day 8): 86%
- Viable Cell Density (VCD) ([1]; day 8): 25.6 E5/ml
- Gln ([1]; day 11): 0.52 mM
- Glucose ([1]; day 11): 0.22 g/L
- Lactate ([1]; day 11): 1.59 g/L
- NH4 ([1]; day 11): 3 mM
- Specific Glutamin consumption (Gln/VCD) ([1]; day 11): 0.03
- Specific ammonia production (NH4/VCD) ([1]; day 11): 0.18
- Specific glucose consumption (Gluc/VCD) ([1]; day 11): 0.01
- Specific lactate production (Lac/VCD) ([1]; day 11): 0.10
- Total Cell Density TCD ([1]; day 11): 32.8 E5/ml
- Viabil. ([1]; day 11): 50%
- Viable Cell Density (VCD) ([1]; day 11): 16.3 E5/ml
- Total Cell Density TCD ([2]; day 0, fed-batch): 1.5 E5/ml
- Viabil. ([2]; day 0, fed-batch): 91%
- Viable Cell Density (VCD) ([2]; day 0, fed-batch): 1.37 E5/ml
- Total Cell Density TCD ([2]; day 2, fed-batch): 4.2 E5/ml and 4.4 E5/ml
- Viabil. ([2]; day 2, fed-batch): 98%
- Viable Cell Density (VCD) ([2]; day 2, fed-batch): 4.1 E5/ml and 4.3 E5/ml
- Total Cell Density TCD ([2]; day 5, fed-batch): 18.1 E5/ml
- Viabil. ([2]; day 5, fed-batch): 97%
- Viable Cell Density (VCD) ([2]; day 5, fed-batch): 17.5 E5/ml
- Total Cell Density TCD ([2]; day 8, fed-batch): 62.2 E5/ml and 64.1 E5/ml
- Viabil. ([2]; day 8, fed-batch): 90% and 92%
- Viable Cell Density (VCD) ([2]; day 8, fed-batch): 55.7 E5/ml and 58.8 E5/ml
- Antibody concentration [3]: 127%
- Sp. Gluc cons. ([4]; day 0): 95
- Sp. NH4 prod ([4]; day 0): 98 % of control
- TCD ([4]; day 0): 100 % of control
- VCD ([4]; day 0): 100 % of control
- Viabil. ([4]; day 0): 94%
- Sp. Gluc cons. ([4]; day 3): 74
- Sp. Lactate prod. ([4]; day 3): 75 % of control
- Sp. NH4 prod ([4]; day 3): 72 % of control
- TCD ([4]; day 3): 124 % of control
- VCD ([4]; day 3): 132 % of control
- Viabil. ([4]; day 3): 95%
- Sp. Gluc cons. ([4]; day 5): 88
- Sp. Lactate prod. ([4]; day 5): 93 % of control
- Sp. NH4 prod ([4]; day 5): 90 % of control
- TCD ([4]; day 5): 108 % of control
- VCD ([4]; day 5): 111 % of control
- Viabil. ([4]; day 5): 95%
- Sp. Gluc cons. ([4]; day 7): 78
- Sp. Lactate prod. ([4]; day 7): 89 % of control
- Sp. NH4 prod ([4]; day 7): 85 % of control
- TCD ([4]; day 7): 118 % of control
- VCD ([4]; day 7): 117 % of control
- Viabil. ([4]; day 7): 87%
- Sp. Gluc cons. ([4]; day 9): 69
- Sp. Lactate prod. ([4]; day 9): 78 % of control
- Sp. NH4 prod ([4]; day 9): 74 % of control
- TCD ([4]; day 9): 134 % of control
- VCD ([4]; day 9): 136 % of control
- Viabil. ([4]; day 9): 94%
- Total Cell Density TCD ([5]; day 0): 1.1 E5/ml
- Viabil. ([5]; day 0): 96%
- Viable Cell Density (VCD) ([5]; day 0): 1.0 E5/ml
- Total Cell Density TCD ([5]; day 3): 9.3 E5/ml
- Viabil. ([5]; day 3): 95%
- Viable Cell Density (VCD) ([5]; day 3): 8.8 E5/ml
- Total Cell Density TCD ([5]; day 5): 56.7 E5/ml
- Viabil. ([5]; day 5): 96%
- Viable Cell Density (VCD) ([5]; day 5): 54.3 E5/ml
- Total Cell Density TCD ([5]; day 7): 42.0 E5/ml
- Viabil. ([5]; day 7): 82%
- Viable Cell Density (VCD) ([5]; day 7): 34.5 E5/ml
- Total Cell Density TCD ([5]; day 9): 35.9 E5/ml
- Viabil. ([5]; day 9): 74%
- Viable Cell Density (VCD) ([5]; day 9): 26.7 E5/ml

SMILES: O=C(O)C(O)C(O)C(=O)O (centres unmarked) [Tartaric acid]
- Gln ([1]; day 0): 1.53 mM
- Glucose ([1]; day 0): 4.69 g/L
- Lactate ([1]; day 0): 0 g/L
- NH4 ([1]; day 0): 1.22 mM
- Specific Glutamin consumption (Gln/VCD) ([1]; day 0): 1.49
- Specific ammonia production (NH4/VCD) ([1]; day 0): 1.18
- Specific glucose consumption (Gluc/VCD) ([1]; day 0): 4.55
- Specific lactate production (Lac/VCD) ([1]; day 0): 0.00
- Total Cell Density TCD ([1]; day 0): 1.07 E5/ml
- Viabil. ([1]; day 0): 96%
- Viable Cell Density (VCD) ([1]; day 0): 1.03 E5/ml
- Gln ([1]; day 3): 0.9 mM
- Glucose ([1]; day 3): 4.53 g/L
- Lactate ([1]; day 3): 0.41 g/L
- NH4 ([1]; day 3): 1.84 mM
- Specific Glutamin consumption (Gln/VCD) ([1]; day 3): 0.17
- Specific ammonia production (NH4/VCD) ([1]; day 3): 0.34
- Specific glucose consumption (Gluc/VCD) ([1]; day 3): 0.84
- Specific lactate production (Lac/VCD) ([1]; day 3): 0.08
- Total Cell Density TCD ([1]; day 3): 5.5 E5/ml
- Viabil. ([1]; day 3): 98%
- Viable Cell Density (VCD) ([1]; day 3): 5.4 E5/ml
- Gln ([1]; day 6): 0.19 mM
- Glucose ([1]; day 6): 3.56 g/L
- Lactate ([1]; day 6): 0.6 g/L
- NH4 ([1]; day 6): 2.89 mM
- Specific Glutamin consumption (Gln/VCD) ([1]; day 6): 0.00
- Specific ammonia production (NH4/VCD) ([1]; day 6): 0.07
- Specific glucose consumption (Gluc/VCD) ([1]; day 6): 0.09
- Specific lactate production (Lac/VCD) ([1]; day 6): 0.02
- Total Cell Density TCD ([1]; day 6): 41.3 E5/ml
- Viabil. ([1]; day 6): 97%
- Viable Cell Density (VCD) ([1]; day 6): 40 E5/ml
- Gln ([1]; day 8): 0.27 mM
- Glucose ([1]; day 8): 2.65 g/L
- Lactate ([1]; day 8): 0.64 g/L
- NH4 ([1]; day 8): 3.42 mM
- Specific Glutamin consumption (Gln/VCD) ([1]; day 8): 0.03
- Specific ammonia production (NH4/VCD) ([1]; day 8): 0.33
- Specific glucose consumption (Gluc/VCD) ([1]; day 8): 0.25
- Specific lactate production (Lac/VCD) ([1]; day 8): 0.06
- Total Cell Density TCD ([1]; day 8): 12.1 E5/ml
- Viabil. ([1]; day 8): 87%
- Viable Cell Density (VCD) ([1]; day 8): 10.5 E5/ml
- Gln ([1]; day 11): 0.42 mM
- Glucose ([1]; day 11): 1.71 g/L
- Lactate ([1]; day 11): 0.79 g/L
- NH4 ([1]; day 11): 3.87 mM
- Specific Glutamin consumption (Gln/VCD) ([1]; day 11): 0.05
- Specific ammonia production (NH4/VCD) ([1]; day 11): 0.44
- Specific glucose consumption (Gluc/VCD) ([1]; day 11): 0.20
- Specific lactate production (Lac/VCD) ([1]; day 11): 0.09
- Total Cell Density TCD ([1]; day 11): 18 E5/ml
- Viabil. ([1]; day 11): 48%
- Viable Cell Density (VCD) ([1]; day 11): 8.7 E5/ml
- Total Cell Density TCD ([2]; day 0, fed-batch): 1.5 E5/ml
- Viabil. ([2]; day 0, fed-batch): 91%
- Viable Cell Density (VCD) ([2]; day 0, fed-batch): 1.37 E5/ml
- Total Cell Density TCD ([2]; day 2, fed-batch): 4 E5/ml and 3.9 E5/ml
- Viabil. ([2]; day 2, fed-batch): 98% and 97%
- Viable Cell Density (VCD) ([2]; day 2, fed-batch): 3.9 E5/ml and 3.8 E5/ml
- Total Cell Density TCD ([2]; day 5, fed-batch): 10.4 E5/ml and 9.6 E5/ml
- Viabil. ([2]; day 5, fed-batch): 93% and 95%
- Viable Cell Density (VCD) ([2]; day 5, fed-batch): 9.7 E5/ml and 9.1 E5/ml
- Total Cell Density TCD ([2]; day 8, fed-batch): 26.6 E5/ml and 27.7 E5/ml
- Viabil. ([2]; day 8, fed-batch): 89% and 90%
- Viable Cell Density (VCD) ([2]; day 8, fed-batch): 23.7 E5/ml and 25 E5/ml
